# Measurements published in ChEMBL document CHEMBL1201862, “PubChem BioAssay data set” (2004).
# Active and inactive are the calls of the source.
# Experiments:
# [1] = molecular target: Heat shock protein HSP 90-alpha (Homo sapiens, UniProt P07900); assay: Luminescence-based dose response biochemical high throughput screening assay for inhibitors of the Heat Shock Protein 90 (HSP90). [Related pubchem assays: 1831 (Summary AID.), 1846 (Confirmation screen.), 1789 (Primary screen.)]
# fMet-Leu-Phe receptor = fMet-Leu-Phe receptor (Homo sapiens, UniProt P21462); assay: FPR ligands, dose response (AID 519); format: functional
# Major prion protein = Major prion protein (Homo sapiens, UniProt P04156); format: functional, cell-based
# cells [2] = assay: cells
# [3] = molecular target: T1, Oxysterols receptor LXR-beta (Homo sapiens, UniProt P55055); format: functional, cell-based
# T1 sequence (P55055 whole entry): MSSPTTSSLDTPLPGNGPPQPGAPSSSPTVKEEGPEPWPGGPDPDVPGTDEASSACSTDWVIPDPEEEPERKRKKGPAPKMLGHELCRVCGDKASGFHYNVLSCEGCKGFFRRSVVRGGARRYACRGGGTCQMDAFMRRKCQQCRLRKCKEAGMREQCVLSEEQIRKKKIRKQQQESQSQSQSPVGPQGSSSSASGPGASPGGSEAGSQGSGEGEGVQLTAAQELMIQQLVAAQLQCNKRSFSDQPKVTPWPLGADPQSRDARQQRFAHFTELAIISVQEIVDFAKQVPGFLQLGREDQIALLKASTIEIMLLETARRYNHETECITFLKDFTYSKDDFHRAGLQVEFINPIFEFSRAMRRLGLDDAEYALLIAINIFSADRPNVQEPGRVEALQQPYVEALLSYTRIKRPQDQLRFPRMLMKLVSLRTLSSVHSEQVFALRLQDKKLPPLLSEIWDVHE
# cells [4] = assay: cells; remark: listed apart in the source
# [5] = molecular target: T1, Oxysterols receptor LXR-beta; format: functional, cell-based; remark: listed apart in the source
# [6] = molecular target: Bifunctional protein GlmU (Mycobacterium tuberculosis, UniProt P9WMN3); assay: Inhibitors of Mycobacterial Glucosamine-1-phosphate acetyl transferase (GlmU). Secondary screen.; set-up: species or system Mycobacterium tuberculosis H37Rv
# Protein Tat = Protein Tat (Human immunodeficiency virus type 1 group M subtype B (isolate HXB2)(HIV-1), UniProt P04608); format: functional;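 also: tat binding to TAR RNA read out by fluorescence polarization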
# Genome polyprotein = Genome polyprotein (dengue virus type 2, UniProt P29990); assay: Dengue-2 NS5 methyltransferase inhibitors, primary screen, biochemical, confirmation dose response (AID 588689); format: functional
# [7] = Luminescence-based cell-based high throughput dose response assay to identify activators of the DAF-12 from the parasite S. stercoralis (ssDAF-12).; format: functional
# [8] = molecular target: T2, RNA-binding protein pos-1 (Caenorhabditis elegans, UniProt G5EF15); assay: inhibitors of POS-1/mex-3 RNA binding, dose response, biochemical, fluorescence polarization (AID 1964);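 also: purified POS-1 fused to maltose binding protein made in E. coli; potency of compounds blocking POS-1 binding to fluorescent RNA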
# T2 sequence (G5EF15 whole entry): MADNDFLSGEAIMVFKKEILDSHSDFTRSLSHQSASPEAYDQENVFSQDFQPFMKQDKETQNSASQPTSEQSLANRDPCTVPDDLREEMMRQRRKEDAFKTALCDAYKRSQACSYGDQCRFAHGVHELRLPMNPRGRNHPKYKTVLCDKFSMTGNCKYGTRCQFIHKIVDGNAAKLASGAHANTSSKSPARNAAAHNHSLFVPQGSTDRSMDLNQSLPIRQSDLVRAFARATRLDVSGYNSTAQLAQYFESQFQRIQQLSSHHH
# [9] = molecular target: T3, Zinc finger protein mex-5 (Caenorhabditis elegans, UniProt Q9XUB2); assay: MEX-5/TCR-2 RNA interaction inhibitors, dose response, biochemical, C. elegans, fluorescence polarization (AID 1960)
# T3 sequence (Q9XUB2 whole entry): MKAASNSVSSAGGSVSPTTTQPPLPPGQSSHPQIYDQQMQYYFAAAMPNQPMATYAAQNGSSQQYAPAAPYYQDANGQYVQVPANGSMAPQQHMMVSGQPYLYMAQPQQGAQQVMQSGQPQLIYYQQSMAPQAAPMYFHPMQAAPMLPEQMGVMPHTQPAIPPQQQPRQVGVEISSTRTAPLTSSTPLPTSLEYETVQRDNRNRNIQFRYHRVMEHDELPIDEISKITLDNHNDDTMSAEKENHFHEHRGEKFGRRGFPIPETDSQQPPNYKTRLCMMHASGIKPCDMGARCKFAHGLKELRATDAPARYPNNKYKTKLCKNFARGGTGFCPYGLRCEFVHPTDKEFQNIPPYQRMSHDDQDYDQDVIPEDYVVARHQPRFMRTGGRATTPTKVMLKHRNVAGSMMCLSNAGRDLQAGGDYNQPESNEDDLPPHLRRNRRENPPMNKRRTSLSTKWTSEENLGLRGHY
# [10] = molecular target: T1, Oxysterols receptor LXR-beta; assay: LXR agonists, Gal4 luciferase reporter, dose response, counter-screen for ssDAF-12 agonist project, cell-based, luminescence, HEK293, S. stercoralis campaign (AID 720737); format: functional; details: read-out: IC50 (the source's name)
smiles,measurement,setting,value
Cc1c(-c2nc(-c3ccc(C(F)(F)F)cc3)no2)n(C)oc1=O,IC50,[1],1.6 µM (active)
COc1ccc(-c2nc(-c3ccc(Br)o3)no2)cc1OC,Ki,fMet-Leu-Phe receptor,> 66.7 µM (inactive)
CCc1nc(SCC(=O)OC(C)C)c2ccccc2n1,IC50,Major prion protein,2.38 µM (active)
same,IC50,cells [2],> 138 µM (inactive)
Cn1c(SCc2ccccc2F)nc2cccnc21,EC50,[3],> 67.5 µM (inactive)
Oc1cc(-c2ccccc2)nc(N2CCN(Cc3ccccc3)CC2)n1,Ki,fMet-Leu-Phe receptor,> 66.7 µM (inactive)
Cc1ccc(CNC2=Nc3ccccc3CS2)cc1,EC50,cells [4],> 67.5 µM (inactive)
same,EC50,[5],> 67.5 µM (inactive)
O=C(COc1ccc2ccccc2c1Br)NC(=S)Nc1cccc(CO)c1,IC50,Major prion protein,9.99 µM (active)
same,IC50,cells [2],98.9 µM (inactive)
Cc1ccc(CNC(=O)CCS(=O)(=O)c2ccc(Br)cc2)cc1,IC50,[6],59.1 µM (active)
O=C(O)c1ccc(-n2nc(C(F)(F)F)c3c2-c2ccoc2CC3)cc1,IC50,Protein Tat,> 100 µM (active)
same,IC50,Genome polyprotein,89 µM (active)
O=C(O)C(=O)/C(=C\c1ccsc1)c1ccc2ccccc2n1,IC50,[7],> 67.6 µM (inactive)
same,EC50,[8],27.9 µM (active)
same,EC50,[9],49 µM (active)
same,EC50,[10],> 67.6 µM (inactive)
